Key:
Experiment in all cases: relative viability (nuclei count vs DMSO), 5 days (fraction); higher = more cells survive
EMC-BAC-2 = tested on: EMC-BAC-2
Method in brief: (§1)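 After 5 days of treatment, lung cancer cells in 1536-well plates were fixed and stained in a single step (final 0.05% Triton X-100, 1% formaldehyde, 1 ug/ml Hoechst) and their nuclei counted on 4× images. Treatment had been applied by pin tool the day after seeding as one drug alone or as a fixed anchor-drug dose with five library-drug doses (not always all listed) in √10 steps. Relative viability is the nuclei count of treated wells divided by that of vehicle wells, and values are medians of duplicate plates.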

EPLC-272H = tested on: EPLC-272H
Method in brief: as §1

H3255 = tested on: H3255
Method in brief: as §1

HOP-62 = tested on: HOP-62
Method in brief: as §1

LCLC-97TM1 = tested on: LCLC-97TM1
Method in brief: as §1

LXF-289 = tested on: LXF-289
Method in brief: as §1

NCI-H1563 = tested on: NCI-H1563
Method in brief: as §1

NCI-H1650 = tested on: NCI-H1650
Method in brief: as §1

NCI-H1915 = tested on: NCI-H1915
Method in brief: as §1

NCI-H1993 = tested on: NCI-H1993
Method in brief: as §1

NCI-H2009 = tested on: NCI-H2009
Method in brief: as §1

NCI-H2023 = tested on: NCI-H2023
Method in brief: as §1

SMILES: NC(=O)Nc1cc(-c2cccc(F)c2)sc1C(=O)N[C@H]1CCCNC1 [AZD7762] + COc1cc2c(Oc3ccc(NC(=O)C4(C(=O)Nc5ccc(F)cc5)CC4)cc3F)ccnc2cc1OCCCN1CCOCC1 [Foretinib] (partner 0.25 µM)
- relative viability (EMC-BAC-2; first compound 0.01 µM): 1.08
- relative viability (EMC-BAC-2; first compound 0.03162 µM): 1
- relative viability (EMC-BAC-2; first compound 0.1 µM): 1.08
- relative viability (EMC-BAC-2; first compound 0.3162 µM): 1.04
- relative viability (EMC-BAC-2; first compound 1 µM): 0.89
- relative viability (EPLC-272H; first compound 0.01 µM): 0.676
- relative viability (EPLC-272H; first compound 0.03162 µM): 0.654
- relative viability (EPLC-272H; first compound 0.1 µM): 0.654
- relative viability (EPLC-272H; first compound 0.3162 µM): 0.615
- relative viability (EPLC-272H; first compound 1 µM): 0.256
- relative viability (H3255; first compound 0.01 µM): 1.12
- relative viability (H3255; first compound 0.03162 µM): 0.875
- relative viability (H3255; first compound 0.1 µM): 0.972
- relative viability (H3255; first compound 0.3162 µM): 0.89
- relative viability (H3255; first compound 1 µM): 0.859
- relative viability (HOP-62; first compound 0.01 µM): 1.17
- relative viability (HOP-62; first compound 0.03162 µM): 1.14
- relative viability (HOP-62; first compound 0.1 µM): 1.23
- relative viability (HOP-62; first compound 0.3162 µM): 1.1
- relative viability (HOP-62; first compound 1 µM): 1.14
- relative viability (LCLC-97TM1; first compound 0.01 µM): 0.891
- relative viability (LCLC-97TM1; first compound 0.03162 µM): 0.88
- relative viability (LCLC-97TM1; first compound 0.1 µM): 1.02
- relative viability (LCLC-97TM1; first compound 0.3162 µM): 0.95
- relative viability (LCLC-97TM1; first compound 1 µM): 0.948
- relative viability (LXF-289; first compound 0.01 µM): 0.991
- relative viability (LXF-289; first compound 0.03162 µM): 1.05
- relative viability (LXF-289; first compound 0.1 µM): 1.05
- relative viability (LXF-289; first compound 0.3162 µM): 1.01
- relative viability (LXF-289; first compound 1 µM): 1.08
- relative viability (NCI-H1563; first compound 0.01 µM): 1.04
- relative viability (NCI-H1563; first compound 0.03162 µM): 0.967
- relative viability (NCI-H1563; first compound 0.1 µM): 0.974
- relative viability (NCI-H1563; first compound 0.3162 µM): 0.94
- relative viability (NCI-H1563; first compound 1 µM): 0.83
- relative viability (NCI-H1650; first compound 0.01 µM): 1.25
- relative viability (NCI-H1650; first compound 0.03162 µM): 0.931
- relative viability (NCI-H1650; first compound 0.1 µM): 1.14
- relative viability (NCI-H1650; first compound 0.3162 µM): 0.804
- relative viability (NCI-H1650; first compound 1 µM): 0.24
- relative viability (NCI-H1915; first compound 0.01 µM): 1.18
- relative viability (NCI-H1915; first compound 0.03162 µM): 1.08
- relative viability (NCI-H1915; first compound 0.1 µM): 1.09
- relative viability (NCI-H1915; first compound 0.3162 µM): 1.04
- relative viability (NCI-H1915; first compound 1 µM): 0.981
- relative viability (NCI-H1993; first compound 0.01 µM): 0.772
- relative viability (NCI-H1993; first compound 0.03162 µM): 0.878
- relative viability (NCI-H1993; first compound 0.1 µM): 0.801
- relative viability (NCI-H1993; first compound 0.3162 µM): 0.821
- relative viability (NCI-H1993; first compound 1 µM): 0.708
- relative viability (NCI-H2009; first compound 0.01 µM): 1.25
- relative viability (NCI-H2009; first compound 0.03162 µM): 1.27
- relative viability (NCI-H2009; first compound 0.1 µM): 1.27
- relative viability (NCI-H2009; first compound 0.3162 µM): 1.13
- relative viability (NCI-H2009; first compound 1 µM): 0.962
- relative viability (NCI-H2023; first compound 0.01 µM): 0.788
- relative viability (NCI-H2023; first compound 0.03162 µM): 0.529

Reference: the supplement of paper PMC10307832
